Test results reported in US11753407B2, “Compounds for treating spinal muscular atrophy” (PTC Therapeutics, Inc., priority 2012, dated 2023).

Legend:
[1] = test system: SMN2 minigene mRNA (SMN2-A minigene) in HEK293H cells; assay: SMN2 minigene mRNA splicing RT-qPCR assay in cultured cells; type: cell-based, human; conditions: Homo sapiens, HEK293-H; concentration increasing full length SMN2 mRNA 1.5-fold relative to vehicle-treated cells; HEK293H cells with SMN2-A minigene, 24 hours, 7-point concentration data; read-out: EC1.5x for production of full length SMN2 mRNA
How it was run: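 HEK293H cells stably carrying the SMN2-A minigene were treated for 24 h at 37 °C with a 7-point, 3.16-fold dilution series of compound. Multiplex RT-qPCR measured exon 7-containing minigene FL mRNA against GAPDH, expressed relative to vehicle by modified ΔΔCt; the EC1.5× is the concentration giving a 1.5-fold increase.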

[2] = test system: Smn protein in SMA patient fibroblast cells (GM03813); assay: Smn protein assay in cultured cells (SMN HTRF); type: cell-based, human; conditions: SMA patient fibroblast cells, 48 hours; for EC1.5x for Smn protein expression: 7-point concentration curve, SMN HTRF, concentration producing 1.5 times Smn protein vs DMSO vehicle control; for maximum fold (Fold) increase of Smn protein: 7-point concentration data, fold relative to vehicle control
How it was run: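 SMA patient fibroblasts (5,000 cells/well, DMEM-10% FBS) were treated for 48 h at 37 °C with a 7-point, 3.16-fold dilution series in triplicate. RIPA lysates were probed by HTRF (anti-SMN d2/kryptate, overnight, room temperature), reading 665/620 nm. EC1.5× is the concentration giving 1.5-fold Smn over DMSO vehicle.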

For `Cc1nc2ccc(-c3cc(=O)n4cc(OC5CCNCC5)ccc4n3)cc2s1` [Compound 286, 2-(2-methyl-1,3-benzothiazol-6-yl)-7-(piperidin-4-yloxy)-4H-pyrido[1,2-a]pyrimidin-4-one], the EC (1.5-fold increase) [1] was 0.3 to 1 µM, the “EC1.5x for Smn protein expression” value [2] was “*** (an EC1.5× between >0.3 μM and ≤1 μM is indicated by three stars (***))” and the “maximum fold (Fold) increase of Smn protein” value (“maximum fold (Fold) increase” below) [2] was “**** (a fold increase between >1.5 and ≤1.65 is indicated by four stars (****))”. The melting point was 218 to 220 °C.

With `Cc1cn2cc(-c3cc(=O)n4cc(N5CCNCC5)ccc4n3)cc(Cl)c2n1` [Compound 287, 2-(8-chloro-2-methylimidazo[1,2-a]pyridin-6-yl)-7-(piperazin-1-yl)-4H-pyrido[1,2-a]pyrimidin-4-one] the EC (1.5-fold increase) [1] was less than 0.1 µM, the “EC1.5x for Smn protein expression” value [2] was “**** (an EC1.5x≤0.3 μM is indicated by four stars (****))” and the “maximum fold (Fold) increase” value [2] was “***** (a fold increase >1.65 is indicated by five stars (*****))”. For the same compound, the melting point was 245 to 251 °C.

With `Cc1cn2cc(-c3cc(=O)n4cc(N5C[C@@H](C)N[C@@H](C)C5)ccc4n3)cc(Cl)c2n1` [Compound 288, 2-(8-chloro-2-methylimidazo[1,2-a]pyridin-6-yl)-7-[(3R,5S)-3,5-dimethylpiperazin-1-yl]-4H-pyrido[1,2-a]pyrimidin-4-one] the EC (1.5-fold increase) [1] was less than 0.1 µM, the “EC1.5x for Smn protein expression” value [2] was “**** (an EC1.5x≤0.3 μM is indicated by four stars (****))” and the “maximum fold (Fold) increase” value [2] was “***** (a fold increase >1.65 is indicated by five stars (*****))”. The melting point was 289 to 295 °C.

With `Cc1cn2cc(-c3cc(=O)n4cc(N5CCCN(C)CC5)ccc4n3)cc(Cl)c2n1` [Compound 289, 2-(8-chloro-2-methylimidazo[1,2-a]pyridin-6-yl)-7-(4-methyl-1,4-diazepan-1-yl)-4H-pyrido[1,2-a]pyrimidin-4-one] the EC (1.5-fold increase) [1] was less than 0.1 µM, the “EC1.5x for Smn protein expression” value [2] was “**** (an EC1.5x≤0.3 μM is indicated by four stars (****))” and the “maximum fold (Fold) increase” value [2] was “**** (a fold increase between >1.5 and ≤1.65 is indicated by four stars (****))”. It also gave a melting point of 239 to 244 °C.

In the case of `Cc1cn2cc(-c3cc(=O)n4cc(N5CCN[C@H](C)C5)ccc4n3)cc(Cl)c2n1` [Compound 290, 2-(8-chloro-2-methylimidazo[1,2-a]pyridin-6-yl)-7-[(3R)-3-methylpiperazin-1-yl]-4H-pyrido[1,2-a]pyrimidin-4-one], the EC (1.5-fold increase) [1] is reported as less than 0.1 µM, the “EC1.5x for Smn protein expression” value [2] is reported as “**** (an EC1.5x≤0.3 μM is indicated by four stars (****))” and the “maximum fold (Fold) increase” value [2] is reported as “***** (a fold increase >1.65 is indicated by five stars (*****))”. The melting point was 236 to 239 °C.

For `Cc1cn2cc(-c3cc(=O)n4cc(N5CCN[C@@H](C)C5)ccc4n3)cc(Cl)c2n1` [Compound 291, 2-(8-chloro-2-methylimidazo[1,2-a]pyridin-6-yl)-7-[(3S)-3-methylpiperazin-1-yl]-4H-pyrido[1,2-a]pyrimidin-4-one], the EC (1.5-fold increase) [1] was less than 0.1 µM, the “EC1.5x for Smn protein expression” value [2] was “**** (an EC1.5x≤0.3 μM is indicated by four stars (****))” and the “maximum fold (Fold) increase” value [2] was “***** (a fold increase >1.65 is indicated by five stars (*****))”. It also gave a melting point of 236 to 239 °C.

In the case of `Cc1cn2cc(-c3cc(=O)n4cc(N5CCN6CCC[C@@H]6C5)ccc4n3)cc(Cl)c2n1` [Compound 292, 2-(8-chloro-2-methylimidazo[1,2-a]pyridin-6-yl)-7-[(8aR)-hexahydropyrrolo[1,2-a]pyrazin-2(1H)-yl]-4H-pyrido[1,2-a]pyrimidin-4-one], the EC (1.5-fold increase) [1] is reported as less than 0.1 µM, the “EC1.5x for Smn protein expression” value [2] is reported as “**** (an EC1.5x≤0.3 μM is indicated by four stars (****))” and the “maximum fold (Fold) increase” value [2] is reported as “**** (a fold increase between >1.5 and ≤1.65 is indicated by four stars (****))”. The melting point was 274 to 280 °C.

For `Cc1cn2cc(-c3cc(=O)n4cc(N5CCN6CCC[C@H]6C5)ccc4n3)cc(Cl)c2n1` [Compound 293, 2-(8-chloro-2-methylimidazo[1,2-a]pyridin-6-yl)-7-[(8aS)-hexahydropyrrolo[1,2-a]pyrazin-2(1H)-yl]-4H-pyrido[1,2-a]pyrimidin-4-one], the EC (1.5-fold increase) [1] was less than 0.1 µM, the “EC1.5x for Smn protein expression” value [2] was “**** (an EC1.5x≤0.3 μM is indicated by four stars (****))” and the “maximum fold (Fold) increase” value [2] was “***** (a fold increase >1.65 is indicated by five stars (*****))”. The melting point was 269 to 275 °C.

For `Cc1cn2cc(-c3cc(=O)n4cc(N5CCN(C)[C@@H](C)C5)ccc4n3)cc(F)c2n1` [Compound 295, 7-[(3S)-3,4-dimethylpiperazin-1-yl]-2-(8-fluoro-2-methylimidazo[1,2-a]pyridin-6-yl)-4H-pyrido[1,2-a]pyrimidin-4-one], the EC (1.5-fold increase) [1] was less than 0.1 µM, the “EC1.5x for Smn protein expression” value [2] was “**** (an EC1.5x≤0.3 μM is indicated by four stars (****))” and the “maximum fold (Fold) increase” value [2] was “**** (a fold increase between >1.5 and ≤1.65 is indicated by four stars (****))”. For the same compound, the melting point was 269 to 275 °C.

With `Cc1cn2cc(-c3cc(=O)n4cc(N5CCN(C)[C@H](C)C5)ccc4n3)cc(F)c2n1` [Compound 296, 7-[(3R)-3,4-dimethylpiperazin-1-yl]-2-(8-fluoro-2-methylimidazo[1,2-a]pyridin-6-yl)-4H-pyrido[1,2-a]pyrimidin-4-one] the EC (1.5-fold increase) [1] was less than 0.1 µM, the “EC1.5x for Smn protein expression” value [2] was “**** (an EC1.5x≤0.3 μM is indicated by four stars (****))” and the “maximum fold (Fold) increase” value [2] was “***** (a fold increase >1.65 is indicated by five stars (*****))”. The melting point was 279 to 282 °C.

For `Cc1cn2cc(-c3cc(=O)n4cc(N5CCC(N(C)C)CC5)ccc4n3)cc(F)c2n1` [Compound 297, 7-[4-(dimethylamino)piperidin-1-yl]-2-(8-fluoro-2-methylimidazo[1,2-a]pyridin-6-yl)-4H-pyrido[1,2-a]pyrimidin-4-one], the EC (1.5-fold increase) [1] was less than 0.1 µM, the “EC1.5x for Smn protein expression” value [2] was “**** (an EC1.5x≤0.3 μM is indicated by four stars (****))” and the “maximum fold (Fold) increase” value [2] was “***** (a fold increase >1.65 is indicated by five stars (*****))”. For the same compound, the melting point was 250 to 257 °C.

In the case of `COc1ccc(-c2ccc3nc(N4CCC(N(C)C)CC4)cc(=O)n3c2)cc1F` [Compound 298, 2-[4-(dimethylamino)piperidin-1-yl]-7-(3-fluoro-4-methoxyphenyl)-4H-pyrido[1,2-a]pyrimidin-4-one], the EC (1.5-fold increase) [1] is reported as 0.3 to 1 µM, the “maximum fold (Fold) increase” value [2] is reported as “*** (a fold increase between >1.35 and ≤1.5 is indicated by three stars (***))” and the melting point is reported as 157 to 160 °C.

With `Cc1nc2c(F)cc(-c3cc(=O)n4cc(C5=CCNCC5)ccc4n3)cc2o1` [Compound 299, 2-(4-fluoro-2-methyl-1,3-benzoxazol-6-yl)-7-(1,2,3,6-tetrahydropyridin-4-yl)-4H-pyrido[1,2-a]pyrimidin-4-one] the EC (1.5-fold increase) [1] was less than 0.1 µM, the “EC1.5x for Smn protein expression” value [2] was “**** (an EC1.5x≤0.3 μM is indicated by four stars (****))” and the “maximum fold (Fold) increase” value [2] was “***** (a fold increase >1.65 is indicated by five stars (*****))”. The melting point was 177 to 180 °C.

With `Cc1nc2c(F)cc(-c3cc(=O)n4cc(C5=CCN(C)CC5)ccc4n3)cc2o1` [Compound 300, 2-(4-fluoro-2-methyl-1,3-benzoxazol-6-yl)-7-(1-methyl-1,2,3,6-tetrahydropyridin-4-yl)-4H-pyrido[1,2-a]pyrimidin-4-one] the EC (1.5-fold increase) [1] was less than 0.1 µM, the “EC1.5x for Smn protein expression” value [2] was “**** (an EC1.5x≤0.3 μM is indicated by four stars (****))” and the “maximum fold (Fold) increase” value [2] was “***** (a fold increase >1.65 is indicated by five stars (*****))”. The melting point was 178 to 181 °C.

In the case of `COc1ccc(-c2cc(=O)n3cc(N4C[C@H]5CCCN[C@H]5C4)ccc3n2)cc1F` [Compound 301, 2-(3-fluoro-4-methoxyphenyl)-7-[(4aR,7aR)-octahydro-6H-pyrrolo[3,4-b]pyridin-6-yl]-4H-pyrido[1,2-a]pyrimidin-4-one], the EC (1.5-fold increase) [1] is reported as 1 to 3 µM, the “maximum fold (Fold) increase” value [2] is reported as “* (A maximum fold increase of ≤1.2 is indicated by one star (*))” and the melting point is reported as 194 to 201 °C.

In the case of `Cc1nc2ccc(-c3cc(=O)n4cc(C5=CCN(C)CC5)ccc4n3)cc2o1` [Compound 303, 2-(2-methyl-1,3-benzoxazol-6-yl)-7-(1-methyl-1,2,3,6-tetrahydropyridin-4-yl)-4H-pyrido[1,2-a]pyrimidin-4-one], the EC (1.5-fold increase) [1] is reported as less than 0.1 µM, the “EC1.5x for Smn protein expression” value [2] is reported as “**** (an EC1.5x≤0.3 μM is indicated by four stars (****))” and the “maximum fold (Fold) increase” value [2] is reported as “**** (a fold increase between >1.5 and ≤1.65 is indicated by four stars (****))”. For the same compound, the melting point was 132 to 135 °C.

With `CCN1CC=C(c2ccc3nc(-c4ccc5nc(C)oc5c4)cc(=O)n3c2)CC1` [Compound 304, 7-(1-ethyl-1,2,3,6-tetrahydropyridin-4-yl)-2-(2-methyl-1,3-benzoxazol-6-yl)-4H-pyrido[1,2-a]pyrimidin-4-one] the EC (1.5-fold increase) [1] was less than 0.1 µM, the “EC1.5x for Smn protein expression” value [2] was “**** (an EC1.5x≤0.3 μM is indicated by four stars (****))” and the “maximum fold (Fold) increase” value [2] was “***** (a fold increase >1.65 is indicated by five stars (*****))”. The melting point was 128 to 131 °C.

With `Cc1nc2c(F)cc(-c3cc(=O)n4cc(N5CCNCC5)ccc4n3)cc2o1` [Compound 305, 2-(4-fluoro-2-methyl-1,3-benzoxazol-6-yl)-7-(piperazin-1-yl)-4H-pyrido[1,2-a]pyrimidin-4-one] the EC (1.5-fold increase) [1] was less than 0.1 µM, the “EC1.5x for Smn protein expression” value [2] was “**** (an EC1.5x≤0.3 μM is indicated by four stars (****))” and the “maximum fold (Fold) increase” value [2] was “***** (a fold increase >1.65 is indicated by five stars (*****))”. The melting point was 184 to 186 °C.
